In PMC8691750, “Euphorbia Factor L2 ameliorates the Progression of K/BxN Serum-Induced Arthritis by Blocking TLR7 Mediated IRAK4/IKKβ/IRF5 and NF-kB Signaling Pathways” (Frontiers in Pharmacology, 2021):
Where “and” joins values, the source holds several entries; their conditions need not be identical. Equal values may be shown once.

System: TLR signalling pathway genes
Assay: Toll-like Receptor Pathway PCR array of ankles
Format: in vivo, C57BL/6 mice
Conditions: for S40/SIA (fold change) / log2(fold change) S40/SIA: S40 group vs SIA group
Procedure: Total RNA was isolated from the right ankles using the TRIzol Reagent (Invitrogen) and purified with RNeasy Mini Kit and RNase-Free DNase Set (Qiagen). RNA quality was determined using a spectrophotometer and was reversely transcribed using Wcgene® mRNA cDNA kit. The complementary DNA was used on the Toll-like Receptor Pathway PCR Array plate (Wcgene® biotech, China).

## C=C1C(OC(=O)c2ccccc2)CC2C(C=C(C)C(=O)C3(OC(C)=O)CC(C)C(OC(=O)c4ccccc4)C3C1OC(C)=O)C2(C)C (stereo not shown) [EFL2, Euphorbia factor L2]
Irak2 mRNA
  S40/SIA (fold change): 0.4814
  log2(fold change) S40/SIA: -1.055
Irak3 mRNA in ankles of STA mice, relative to GAPDH, one value per animal (samples S401-S405)
  fold-GAPDH, Irak3: 0.01639 and 0.02176 and 0.01462 and 0.00868
Irak3 mRNA
  S40/SIA (fold change): 0.4891
  log2(fold change) S40/SIA: -1.032
Irak4 mRNA in ankles of STA mice, relative to GAPDH, one value per animal (samples S401-S405)
  fold-GAPDH, Irak4: 0.005444 and 0.007871 and 0.004771 and 0.003248
Irf1 mRNA in ankles of STA mice, relative to GAPDH, one value per animal (samples S401-S405)
  fold-GAPDH, Irf1: 0.006938 and 0.008232
Irf1 mRNA
  S40/SIA (fold change): 0.3319
  log2(fold change) S40/SIA: -1.591
Irf3 mRNA in ankles of STA mice, relative to GAPDH, one value per animal (samples S401-S405)
  fold-GAPDH, Irf3: 0.01116 and 0.01143 and 0.004857
Irf3 mRNA
  S40/SIA (fold change): 0.3241
  log2(fold change) S40/SIA: -1.626
Jun mRNA in ankles of STA mice, relative to GAPDH, one value per animal (samples S401-S405)
  fold-GAPDH, Jun: 0.04078 and 0.0443 and 0.03642 and 0.03036
Jun mRNA
  S40/SIA (fold change): 0.3678
  log2(fold change) S40/SIA: -1.443
Ly86 mRNA in ankles of STA mice, relative to GAPDH, one value per animal (samples S401-S405)
  fold-GAPDH, Ly86: 0.008619 and 0.01651 and 0.01407 and 0.001011
Ly96 mRNA in ankles of STA mice, relative to GAPDH, one value per animal (samples S401-S405)
  fold-GAPDH, Ly96: 0.00648 and 0.008818 and 0.008037 and 0.003545
Ly96 mRNA
  S40/SIA (fold change): 0.3878
  log2(fold change) S40/SIA: -1.367
Map2k3 mRNA in ankles of STA mice, relative to GAPDH, one value per animal (samples S401-S405)
  fold-GAPDH, Map2k3: 0.0383 and 0.04062 and 0.04366 and 0.0009844
Map2k4 mRNA in ankles of STA mice, relative to GAPDH, one value per animal (samples S401-S405)
  fold-GAPDH, Map2k4: 0.006054 and 0.009032 and 0.01171 and 0.005161
Map2k4 mRNA
  S40/SIA (fold change): 0.8651
  log2(fold change) S40/SIA: -0.209
Map3k1 mRNA in ankles of STA mice, relative to GAPDH, one value per animal (samples S401-S405)
  fold-GAPDH, Map3k1: 0.006062 and 0.005781 and 0.1236
Map3k7 mRNA in ankles of STA mice, relative to GAPDH, one value per animal (samples S401-S405)
  fold-GAPDH, Map3k7: 0.01592 and 0.021 and 0.01646 and 0.01133
Mapk8ip3 mRNA in ankles of STA mice, relative to GAPDH, one value per animal (samples S401-S405)
  fold-GAPDH, Mapk8ip3: 0.001064 and 0.001038
Mapk8 mRNA in ankles of STA mice, relative to GAPDH, one value per animal (samples S401-S405)
  fold-GAPDH, Mapk8: 0.01945 and 0.02479 and 0.0101
Mapk9 mRNA in ankles of STA mice, relative to GAPDH, one value per animal (samples S401-S405)
  fold-GAPDH, Mapk9: 0.001275 and 0.001267 and 0.00173 and 0.000754
Muc13 mRNA in ankles of STA mice, relative to GAPDH, one value per animal (samples S401-S405)
  fold-GAPDH, Muc13: 6.559e-5 and 0.0002674 and 0.000223 and 0.0001076
Myd88 mRNA in ankles of STA mice, relative to GAPDH, one value per animal (samples S401-S405)
  fold-GAPDH, Myd88: 0.009066 and 0.0089 and 0.006533 and 0.004478
Myd88 mRNA
  S40/SIA (fold change): 0.1447
  log2(fold change) S40/SIA: -2.789
Nfkb1 mRNA in ankles of STA mice, relative to GAPDH, one value per animal (samples S401-S405)
  fold-GAPDH, Nfkb1: 0.02137 and 0.03037 and 0.044 and 0.01259
Nfkb2 mRNA in ankles of STA mice, relative to GAPDH, one value per animal (samples S401-S405)
  fold-GAPDH, Nfkb2: 0.005983 and 0.008129 and 0.004372 and 0.004079
Nfkb2 mRNA
  S40/SIA (fold change): 0.2395
  log2(fold change) S40/SIA: -2.062
Nfkbia mRNA in ankles of STA mice, relative to GAPDH, one value per animal (samples S401-S405)
  fold-GAPDH, Nfkbia: 0.03064 and 0.03111 and 0.02056 and 0.01675
Nfkbia mRNA
  S40/SIA (fold change): 0.2445
  log2(fold change) S40/SIA: -2.032
Nfkbib mRNA in ankles of STA mice, relative to GAPDH, one value per animal (samples S401-S405)
  fold-GAPDH, Nfkbib: 0.00388 and 0.005737 and 0.004539 and 0.002397
Nfkbib mRNA
  S40/SIA (fold change): 0.4073
  log2(fold change) S40/SIA: -1.2959
Nfrkb mRNA in ankles of STA mice, relative to GAPDH, one value per animal (samples S401-S405)
  fold-GAPDH, Nfrkb: 0.003341 and 0.001769 and 0.003291
Nr2c2 mRNA in ankles of STA mice, relative to GAPDH, one value per animal (samples S401-S405)
  fold-GAPDH, Nr2c2: 0.008167 and 0.009954 and 0.006912 and 0.004742
Nr2c2 mRNA
  S40/SIA (fold change): 0.5521
  log2(fold change) S40/SIA: -0.8571
Peli1 mRNA in ankles of STA mice, relative to GAPDH, one value per animal (samples S401-S405)
  fold-GAPDH, Peli1: 0.01623 and 0.02035 and 0.01296 and 0.0006428
Peli1 mRNA
  S40/SIA (fold change): 0.462
  log2(fold change) S40/SIA: -1.114
Pglyrp1 mRNA in ankles of STA mice, relative to GAPDH, one value per animal (samples S401-S405)
  fold-GAPDH, Pglyrp1: 0.001422 and 0.0004159 and 0.002383
Pglyrp1 mRNA
  S40/SIA (fold change): 0.2161
  log2(fold change) S40/SIA: -2.21
Ppara mRNA in ankles of STA mice, relative to GAPDH, one value per animal (samples S401-S405)
  fold-GAPDH, Ppara: 0.001398 and 0.003006 and 0.002272 and 0.0004292
Ptgs2 mRNA in ankles of STA mice, relative to GAPDH, one value per animal (samples S401-S405)
  fold-GAPDH, Ptgs2: 0.001434 and 0.000397 and 0.0002674 and 0.0003018
Ptgs2 mRNA
  S40/SIA (fold change): 0.03786
  log2(fold change) S40/SIA: -4.723
Rel mRNA
  S40/SIA (fold change): 0.2762
  log2(fold change) S40/SIA: -1.8562
Ticam1 mRNA
  S40/SIA (fold change): 0.59
  log2(fold change) S40/SIA: -0.7611
Tlr2 mRNA
  S40/SIA (fold change): 0.1682
  log2(fold change) S40/SIA: -2.571
Tlr3 mRNA
  S40/SIA (fold change): 0.7859
  log2(fold change) S40/SIA: -0.3477
Tlr4 mRNA
  S40/SIA (fold change): 0.5705
  log2(fold change) S40/SIA: -0.8096
Tlr5 mRNA
  S40/SIA (fold change): 0.188
  log2(fold change) S40/SIA: -2.411
Tlr7 mRNA
  S40/SIA (fold change): 0.09461
  log2(fold change) S40/SIA: -3.402
